Values of other authors as cited in patent US20170333424A1, “Amorphous Vortioxetine Hydrobromide” (Hexal AKTIENGESELLSCHAFT, priority 2014, published 2017).
Structures can show the parent of a compound that is named as a salt.

Details: class II means high permeability, but low solubility

For `Cc1ccc(Sc2ccccc2N2CCNCC2)c(C)c1` [vortioxetine hydrobromide], the BCS class is listed as “class II”.
